The source of these data is US12030878B2 (BRISTOL-MYERS SQUIBB COMPANY, priority 2017, dated 2024).

Holding throughout (format): cell-based
The target of one test is T1, human TLR7 (Homo sapiens, UniProt Q9NYK1).
T1 construct: host or cells: HEK-Blue cells
T1 sequence (Q9NYK1 27-1049): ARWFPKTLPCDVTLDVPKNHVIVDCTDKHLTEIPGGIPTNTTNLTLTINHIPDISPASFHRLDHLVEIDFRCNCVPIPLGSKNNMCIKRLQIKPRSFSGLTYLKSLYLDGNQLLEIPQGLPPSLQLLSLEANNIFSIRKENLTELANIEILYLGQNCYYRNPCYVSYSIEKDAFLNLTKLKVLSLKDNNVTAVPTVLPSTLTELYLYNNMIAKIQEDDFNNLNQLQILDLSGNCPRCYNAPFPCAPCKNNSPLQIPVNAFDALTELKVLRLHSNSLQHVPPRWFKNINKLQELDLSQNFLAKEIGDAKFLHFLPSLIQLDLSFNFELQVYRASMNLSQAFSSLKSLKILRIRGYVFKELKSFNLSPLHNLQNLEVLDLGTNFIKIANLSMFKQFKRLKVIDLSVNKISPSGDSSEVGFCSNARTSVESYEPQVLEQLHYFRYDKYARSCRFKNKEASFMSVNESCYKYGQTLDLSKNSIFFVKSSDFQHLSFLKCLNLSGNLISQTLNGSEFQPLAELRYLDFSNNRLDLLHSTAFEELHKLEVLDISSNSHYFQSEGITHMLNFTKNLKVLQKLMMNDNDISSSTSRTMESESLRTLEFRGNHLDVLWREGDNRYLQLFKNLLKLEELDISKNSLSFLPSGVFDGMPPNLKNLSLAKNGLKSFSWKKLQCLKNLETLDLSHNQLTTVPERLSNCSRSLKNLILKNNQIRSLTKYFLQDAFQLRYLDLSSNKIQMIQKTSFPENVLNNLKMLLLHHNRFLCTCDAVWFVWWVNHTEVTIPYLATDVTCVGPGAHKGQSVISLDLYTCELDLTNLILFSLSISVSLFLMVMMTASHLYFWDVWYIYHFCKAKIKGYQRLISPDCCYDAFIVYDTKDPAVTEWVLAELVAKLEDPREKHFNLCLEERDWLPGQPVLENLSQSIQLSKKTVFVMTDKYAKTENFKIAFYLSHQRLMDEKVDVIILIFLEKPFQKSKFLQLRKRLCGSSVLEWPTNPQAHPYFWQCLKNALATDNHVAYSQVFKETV
The test can be described thus: TLR7 inhibition reporter assay (HEK-Blue SEAP). Conditions: HEK-Blue cells overexpressing human TLR7, stimulated with gardiquimod 7.5 μM, 22 hour incubation. Put shortly:
(§1)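 SEAP read-out via HEK-Blue Detection medium after 22 h at 37 °C; percent inhibition relative to agonist-plus-DMSO and known-inhibitor wells. Agonists: TLR7 gardiquimod 7.5 μM, TLR8 R848 15.9 μM, TLR9 ODN2006 5 nM. Dose range 0.05 nM–50 μM, 30 min compound pre-treatment at RT.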
Background: Reporter assays use an easily measured gene product as a stand-in for the process of interest.

For another test, the target named is T2, human TLR9 (Homo sapiens, UniProt Q9NR96).
T2 construct: host or cells: HEK-Blue cells
T2 sequence (Q9NR96 26-1032): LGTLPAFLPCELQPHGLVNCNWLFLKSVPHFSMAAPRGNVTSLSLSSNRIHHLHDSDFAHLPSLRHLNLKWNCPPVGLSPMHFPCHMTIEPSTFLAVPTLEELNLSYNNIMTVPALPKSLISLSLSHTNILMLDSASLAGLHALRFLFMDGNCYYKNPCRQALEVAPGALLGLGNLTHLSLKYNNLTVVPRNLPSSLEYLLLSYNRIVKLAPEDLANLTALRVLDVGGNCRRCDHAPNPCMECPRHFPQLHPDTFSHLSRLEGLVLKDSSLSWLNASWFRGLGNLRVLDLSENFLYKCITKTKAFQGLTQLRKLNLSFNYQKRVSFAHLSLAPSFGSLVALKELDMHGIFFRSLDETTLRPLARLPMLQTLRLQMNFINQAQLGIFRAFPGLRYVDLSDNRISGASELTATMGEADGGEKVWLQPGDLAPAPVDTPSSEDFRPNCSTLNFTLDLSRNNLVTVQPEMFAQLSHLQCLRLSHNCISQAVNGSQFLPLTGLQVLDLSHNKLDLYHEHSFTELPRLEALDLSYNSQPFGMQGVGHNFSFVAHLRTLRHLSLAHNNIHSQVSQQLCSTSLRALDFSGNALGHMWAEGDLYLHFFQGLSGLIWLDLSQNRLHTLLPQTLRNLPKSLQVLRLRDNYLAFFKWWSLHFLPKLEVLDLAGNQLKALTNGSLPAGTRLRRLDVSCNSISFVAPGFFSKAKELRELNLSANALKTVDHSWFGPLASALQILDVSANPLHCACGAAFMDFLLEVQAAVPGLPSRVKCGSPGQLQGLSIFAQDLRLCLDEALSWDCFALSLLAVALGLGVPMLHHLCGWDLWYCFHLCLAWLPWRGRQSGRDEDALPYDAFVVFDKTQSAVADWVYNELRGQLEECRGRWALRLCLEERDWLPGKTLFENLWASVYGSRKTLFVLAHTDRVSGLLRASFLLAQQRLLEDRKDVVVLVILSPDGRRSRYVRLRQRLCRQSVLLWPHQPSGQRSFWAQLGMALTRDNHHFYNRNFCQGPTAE
The test can be described thus: TLR9 inhibition reporter assay (HEK-Blue SEAP). Conditions: HEK-Blue cells overexpressing human TLR9, stimulated with ODN2006 5 nM, 22 hour incubation. Put shortly: as §1

The target of a further test is T3, human TLR8 (Homo sapiens, UniProt Q9NR97).
T3 construct: host or cells: HEK-Blue cells
T3 sequence (Q9NR97 27-1041): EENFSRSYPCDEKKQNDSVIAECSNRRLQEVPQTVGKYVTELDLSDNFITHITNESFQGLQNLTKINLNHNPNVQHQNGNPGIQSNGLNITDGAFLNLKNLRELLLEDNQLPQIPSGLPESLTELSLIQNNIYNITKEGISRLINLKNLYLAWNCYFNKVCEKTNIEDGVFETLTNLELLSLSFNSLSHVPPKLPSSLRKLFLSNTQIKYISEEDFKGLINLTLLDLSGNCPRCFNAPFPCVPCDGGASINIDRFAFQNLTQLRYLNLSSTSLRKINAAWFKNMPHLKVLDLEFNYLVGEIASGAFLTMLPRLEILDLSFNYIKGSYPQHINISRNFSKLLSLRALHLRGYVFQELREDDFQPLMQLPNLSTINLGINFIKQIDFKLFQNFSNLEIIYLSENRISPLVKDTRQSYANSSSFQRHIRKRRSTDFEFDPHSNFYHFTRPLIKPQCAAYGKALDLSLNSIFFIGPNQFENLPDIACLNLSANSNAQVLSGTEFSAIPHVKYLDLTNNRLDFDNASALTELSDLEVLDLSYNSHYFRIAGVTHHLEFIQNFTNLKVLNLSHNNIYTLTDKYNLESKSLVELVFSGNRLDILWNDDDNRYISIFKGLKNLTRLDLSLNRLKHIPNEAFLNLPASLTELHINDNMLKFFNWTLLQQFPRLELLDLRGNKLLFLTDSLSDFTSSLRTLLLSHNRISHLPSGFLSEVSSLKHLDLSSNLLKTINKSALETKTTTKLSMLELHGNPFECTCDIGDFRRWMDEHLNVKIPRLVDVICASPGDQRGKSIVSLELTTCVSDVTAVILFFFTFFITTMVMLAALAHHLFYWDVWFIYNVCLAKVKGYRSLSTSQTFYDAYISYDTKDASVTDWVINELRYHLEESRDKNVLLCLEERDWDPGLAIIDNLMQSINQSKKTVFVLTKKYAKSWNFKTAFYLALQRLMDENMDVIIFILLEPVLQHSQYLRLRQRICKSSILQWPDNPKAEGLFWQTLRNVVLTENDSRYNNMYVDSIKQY
Description: TLR8 inhibition reporter assay (HEK-Blue SEAP). Conditions: HEK-Blue cells overexpressing human TLR8, stimulated with R848 15.9 μM, 22 hour incubation. The method in brief: as §1

Take `Cc1c(-c2[nH]c3ccc(OC4CCN(C)CC4)cc3c2C(C)C)cn2cnnc2c1C` [Example 53, 6-(3-isopropyl-5-((1-methylpiperidin-4-yl)oxy)-1H-indol-2-yl)-7,8-dimethyl-[1,2,4]triazolo[4,3-a]pyridine]: the half-maximal inhibitory concentration (IC50) (commonly the concentration that gives 50% inhibition) amounted to 1.9 nM at human TLR7, 494 nM on human TLR9 and 3.3 nM on human TLR8.
With `Cc1c(-c2[nH]c3ccc(OCC4CCN(C)CC4)cc3c2C(C)C)cn2cnnc2c1C` [Example 54, 6-(3-isopropyl-5-((1-methylpiperidin-4-yl)methoxy)-1H-indol-2-yl)-7,8-dimethyl-[1,2,4]triazolo[4,3-a]pyridine], the half-inhibitory concentration (IC50) at human TLR7 stood at 1.5 nM; against human TLR9, 1250 nM; against human TLR8, 3.1 nM.
As to `Cc1c(-c2[nH]c3ccc(OCC4CCN(C(C)C)CC4)cc3c2C(C)C)cn2cnnc2c1C` [Example 55, 6-(3-isopropyl-5-((1-isopropylpiperidin-4-yl)methoxy)-1H-indol-2-yl)-7,8-dimethyl-[1,2,4]triazolo[4,3-a]pyridine], the half-inhibitory concentration (IC50) against human TLR7 is 2.6 nM; against human TLR9 it was 1620 nM; on human TLR8, 4.3 nM.
As to `Cc1c(-c2[nH]c3ccc(OC4CCN(C5COC5)CC4)cc3c2C(C)C)cn2cnnc2c1C` [Example 56, 6-(3-isopropyl-5-((1-(oxetan-3-yl)piperidin-4-yl)oxy)-1H-indol-2-yl)-7,8-dimethyl-[1,2,4]triazolo[4,3-a]pyridine], the IC50 came out at 26.3 nM on human TLR7, 19300 nM against human TLR9 and 19.4 nM at human TLR8.
Regarding `Cc1c(-c2[nH]c3ccc(OC4CCN(C(C)C)CC4)cc3c2C(C)C)cn2cnnc2c1C` [Example 57, 6-(3-isopropyl-5-((1-isopropylpiperidin-4-yl)oxy)-1H-indol-2-yl)-7,8-dimethyl-[1,2,4]triazolo[4,3-a]pyridine], the values for the half-inhibitory concentration (IC50) against human TLR7, against human TLR9 and against human TLR8 were 33.6 nM, 18600 nM and 14.5 nM, respectively.
Consider `Cc1cc(-c2[nH]c3ccc(OCC4CN(C(C)C)C4)cc3c2C(C)C)cn2ncnc12` [Example 58, 6-(3-isopropyl-5-((1-isopropylazetidin-3-yl)methoxy)-1H-indol-2-yl)-8-methyl-[1,2,4] triazolo[1,5-a]pyridine], for which the IC50 on human TLR7 was 1.4 nM; on human TLR9, 2440 nM; against human TLR8 it was 5.1 nM.
With `Cc1cc(-c2[nH]c3ccc(OCC4CN(C)C4)cc3c2C(C)C)cn2ncnc12` [Example 59, 6-(3-isopropyl-5-((1-methylazetidin-3-yl)methoxy)-1H-indol-2-yl)-8-methyl-[1,2,4]triazolo[1,5-a]pyridine], the IC50 on human TLR7 amounted to 0.5 nM; against human TLR9 it was 2990 nM; at human TLR8, 6.8 nM.
With `Cc1cc(-c2[nH]c3ccc(OCC4CN(C5COC5)C4)cc3c2C(C)C)cn2ncnc12` [Example 60, 6-(3-isopropyl-5-((1-(oxetan-3-yl)azetidin-3-yl)methoxy)-1H-indol-2-yl)-8-methyl-[1,2,4]triazolo[1,5-a]pyridine], the figures for the IC50 against human TLR7, against human TLR9 and on human TLR8 were 1.2 nM, 2620 nM and 4.7 nM, respectively.
For the compound `Cc1c(-c2[nH]c3ccc(OCC4CN(C)C4)cc3c2C(C)C)cn2cnnc2c1C` [Example 61, 6-(3-isopropyl-5-((1-methylazetidin-3-yl)methoxy)-1H-indol-2-yl)-7,8-dimethyl-[1,2,4]triazolo[4,3-a]pyridine], the IC50 amounted to 493 nM against human TLR7, 6360 nM on human TLR9 and 439 nM against human TLR8.
For `CCCN1CCC(COc2ccc3[nH]c(-c4cn5cnnc5c(C)c4C)c(C(C)C)c3c2)CC1` [Example 62, 6-(3-isopropyl-5-((1-propylpiperidin-4-yl)methoxy)-1H-indol-2-yl)-7,8-dimethyl-[1,2,4]triazolo[4,3-a]pyridine], in that order: 1 nM, 1290 nM and 6 nM.
On to `CCCN1CCC(Oc2ccc3[nH]c(-c4cn5cnnc5c(C)c4C)c(C(C)C)c3c2)CC1` [Example 63, 6-(3-isopropyl-5-((1-propylpiperidin-4-yl)oxy)-1H-indol-2-yl)-7,8-dimethyl-[1,2,4]triazolo[4,3-a]pyridine], for which the figures for the half-maximal inhibitory concentration (IC50) against human TLR7, at human TLR9 and at human TLR8 were 2.1 nM, 2190 nM and 2.5 nM, respectively.
For `Cc1cc(-c2[nH]c3ccc(OC4CCC(N(C)C)CC4)cc3c2C(C)C)cn2ncnc12` (stereo not drawn) [Example 64, 4-((3-isopropyl-2-(8-methyl-[1,2,4]triazolo[1,5-a]pyridin-6-yl)-1H-indol-5-yl)oxy)-N,N-dimethylcyclohexan-1-amine] the same measures were 0.7 nM, 2570 nM and 10.6 nM.
For the compound `COc1cc(-c2[nH]c3ccc(OC4CCN(C)CC4)cc3c2C(C)C)cn2ncnc12` [Example 65, 6-(3-isopropyl-5-((1-methylpiperidin-4-yl)oxy)-1H-indol-2-yl)-8-methoxy-[1,2,4]triazolo[1,5-a]pyridine], the 50% inhibitory concentration (IC50) on human TLR7 stood at 0.3 nM; against human TLR9, 1750 nM; against human TLR8, 0.5 nM.
